Data reported in patent publication US4442084A, “Analgesic and myotonolytic preparations” (Sandoz Ltd., priority 1979, dated 1984).
Read-outs that look alike come from different tables or passages of the source.

Legend:
[1] = Basic analgesic test: adjuvans arthritis pain test on the rat, oral administration; assay type: in vivo, rat (male OFA); conditions: for ED50: Rattus norvegicus, po, individual component
Description: J. of Pharmacology 31, 207-215 (1975)], e.g. as follows: […] This induces a secondary arthritis of the right hind-paw within the course of the next two or more days. The test for analgesic effectiveness is carried out 16 to 18 days later. A control measurement is carried out 30 minutes prior to administration of the test-substance, by flexing the ankle-joint of the right hind paw three times and recording the number of vocalisations (pain-reaction). […] The confidence limits are determined according to the method of […] Wilcoxon. All tests are carried out blind, employing 5 to 15 animals per test substance.

[2] = Test for synergism: analgesia 3 hours after oral co-administration, adjuvans arthritis pain test on the rat; assay type: in vivo, rat (male OFA)
Description: In order to establish the presence or absence of synergism the basic analgesic test described above is employed, with analgesia measured three hours after administration of the test substance. Varying proportions of the two test-substance components are used, in fixed dose relationships, based upon the ED50 values previously established for the individual components. The degree of activity is then presented graphically. The test components are administered orally in tragacanth suspension and 5 to 15 animals employed per test run. The two test-components are administered in the following dose relationship: […]
Thus three basic curves may be obtained as shown diagramatically in FIG. 1 in which a curve x represents potentiation (i.e. super-additive synergism), a curve y represents additive synergism and a curve z represents antagonism.

[3] = 1 hour after administration, read-out: ED50 at 1 hour after administration
[4] = 3 hours after administration, read-out: ED50 at 3 hours after administration
[5] = 5 hours after administration, read-out: ED50 at 5 hours after administration

For `Clc1ccc2nsnc2c1NC1=NCCN1` [Component B, 5-chloro-4-(2-imidazolin-2-ylamino)-2,1,3-benzothiadiazole], the ED50 [1, 3] was about 1.8 mg/kg, the ED50 [1, 4] was 3.6 mg/kg and the ED50 [1, 5] was about 10 mg/kg. For the same compound, the “percentage printed in parentheses beside the ED50 at 5 hours (not explained)” value ([1]; p.o., 5 hours after administration) was -60% and the “% activity” value ([2]; A 0, B 3.6 mg/kg p.o. (relative dosage 0 : 1)) was 50%.

With `Cc1ccc2c(-c3ccc(F)cc3)nc(=O)n(C(C)C)c2c1` [Component A, 1-Isopropyl-4-(4-fluorophenyl)-7-methyl-2(1H)-quinazolinone] the ED50 [1, 3] was about 18 mg/kg, the ED50 [1, 4] was 6.5 mg/kg and the ED50 [1, 5] was 7 mg/kg. The activity at 6.5 mg/kg ([2]; Rattus norvegicus, po, A 6.5 mg/kg, B 0 p.o. (relative dosage 1 : 0)) was 50%.
